Measured values taken from US11266686B2, “Metal complexes and methods of treatment” (PROCYPRA THERAPEUTICS LLC, priority 2013, dated 2022).

Columns and labels:
[1] = Kinetic solubility determination (μDISS Profiler, in situ fiber optic UV); conditions: for dissolved CuATSM as share of the total available in the assay: gluconic acid NCD at the 0.3 hour time point
Method: Solubility assays were performed in 25 mL glass vials. Glass vials (4-mL, capped, VWR) were used to prepare stock solutions. All experiments were conducted using μDISS Profiler™ operated by μDISS Command Software (version 5.0.1.0). MB-8 mini-water bath with built-in stirring device was used to provide stirring during solubility measurements. Temperature during experiments was maintained at 25±2° C., and were performed in duplicate.
An HCl/KCl based buffer at pH 1.2 and a simulated intestinal fluid at pH 6.8 (no pancreatin) were prepared according USP protocols (Vol 35/NF30). […] The concentration measurements are performed directly in the dissolution media, with processed results plotted in real time using the μDISS Profiler™ (Pion) instrument. The Profiler uses an in situ fiber optic-dip probe UV apparatus, with the probe center-positioned in the vial holding the studied compounds and 10-20 mL of media. Interference due to background turbidity was minimized when needed by a spectral second derivative method (Avdeef, A; Tsinman, O. “Miniaturized Rotating Disk Intrinsic Dissolution Rate Measurement: Effects of Buffer Capacity in Comparisons to Traditional Wood's Apparatus”, Pharm. Res., 2008, DOI: 10.1007/s11095-008-96-79-z).
The 2 and 20 mm path length tips were selected for detecting the concentration of CuATSM at pH 1.2 and pH 6.8 respectively. A dry CuATSM powder was dissolved in DMSO resulting a stock solution at known concentration, and then the solution was used to generate standard curves by serial addition. Standard curves were determined from the area under the second derivative curve in wavelength range 340-366 nm (for pH 1.2) and 445-465 nm (for pH 6.8) so as to avoid over saturation of the UV signal.
The solubility of CuATSM was determined in pH 6.8 buffer. Samples of CuATSM were introduced into pH 6.8 buffer as powders, thus, unlike for standards, the final solutions contained no solvents in the background. The 20 mm (at pH 6.8) path length tip was selected for detecting the concentration of CuATSM in solution. All experiments were performed at room temperature 25±3° C.
The 20 mm pathlength tip was selected for detecting the concentration of the compounds in pH 6.8 buffer solution. All experiments were performed at room temperature, 25±3° C., and were performed in duplicate.
Kinetic solubility determination of CuATSM:saccharin (1:2). CuATSM:saccharin (1:2) was prepared according to the methods of EXAMPLE 3. The kinetic solubility profile of CuATSM:saccharin (1:2) was determined in pH 6.8 buffer similarly to the methods given in EXAMPLE 13 and EXAMPLE 14. Standard curves of CuATSM:saccharin (1:2) and saccharin were generated and compared to the standard curves of CuATSM. Saccharin concentrations in the buffer solution were determined from the saccharin standard curves in the 292-310 nm wavelength region, using the Zero Intercept Method so as to minimize spectral interference from CuATSM. […] The upper concentration limit of the assay was approximately 0.12 mg/mL of CuATSM:saccharin (1:2), resulting in upper concentrations limits for CuATSM and for saccharin in solution approximately 60 μg/mL each. All experiments were performed at about 25±3° C., and were performed in duplicate.

[2] = Pharmacokinetics in mice after oral administration, plasma and brain by LC/MS/MS; conditions: 30 mg/kg CuXTSM API oral; for Brain AUC0-24h / Brain AUC0-inf / Brain Cmax / Brain Tmax / Brain t½ (number of time points): mouse brain; for Brain t½ (number of time points) / Plasma t½ (number of time points): bracket = number of time points; for Plasma Ke / Plasma MRT / Plasma AUC0-24h / Plasma AUC0-inf / Plasma Cmax / Plasma Tmax / Plasma t½ (number of time points): mouse plasma; for Plasma AUC0-24h / Plasma AUC0-inf / Plasma Cmax / Plasma Tmax: CuATSM in SSV, NCDs in water; for Brain:plasma-ratio (AUC-based) / Brain:plasma-ratio (Cmax-based): mouse
Method: CuATSM was suspended in “Standard Suspension Vehicle” (SSV), consisting of 0.9% (w/v) NaCl, 0.5% (w/v) sodium carboxymethylcellulose, 0.5% (v/v) benzyl alcohol, and 0.4% (v/v) Tween 80 in deionized water. All other test compounds were suspended in sterile water. Samples were prepared by adding one of the compounds to the liquid vehicle (water or SSV) in a vial and then vortexing the mixture for 3 min with a stir bar inside. If the powdered sample was not completely wetted or not completely suspended, the sample was vortexed for another minute. If wetting was still incomplete, the vial was sonicated until a fully wetted suspension was obtained. Between doses, the sample was stirred on medium speed and then vortexed for an additional 20 s immediately before the next dose was removed from the vial. All dosing was completed from a single preparation of the suspension within 60 min of adding the compound to water or SSV.
Mice were deprived of pelleted food overnight, during which time 10% dextrose, as Dextroput, was provided in tap water, after which the test items were administrated orally by gavage in water or SSV. […] The blood samples were kept on ice after sampling and centrifuged at +4° C., 1800×g for 5 min to prepare plasma. Plasma samples were extracted and transferred into pre-labelled Eppendorf test tubes (50 μl exact in one vial, and the remaining in a second vial) and frozen at −20° C. The samples were transported on dry ice to the analysis site. Following blood sampling, mice were euthanized by cervical dislocation, and then brains were collected through opened skulls. The brains were weighed and placed in test tubes and placed on water ice. Phosphate-buffered saline (PBS, pH 7.4), 4 ml per 1 g of brain tissue, was added to the test tube and brains were homogenized by using Ultra-Turrax T25 homogenizer/S25N-10G (Setting 2, 9500 rpm, approximately 10 s). The homogenate was frozen at −20° C. immediately after homogenization. The samples were transported on dry ice to the analysis site.
Dosed mice were studied in triplicate for each of the seven time points, totaling 21 mice dosed for each studied compound. Plasma samples and brain homogenates from four untreated animals were also obtained. The plasma samples were thawed at room temperature (RT), mixed with 2-fold volume of acetonitrile, shaken and centrifuged for 10 min at 13 000×g (Heraeus Pico 17 centrifuge), after which supernatants were transferred into glass vials. The brain homogenate samples were mixed with 2-fold volume of acetonitrile:methanol, shaken, ultrasonicated for 20 min, and centrifuged for 10 min at 13 000×g (Heraeus Pico 17 centrifuge), after which supernatants were transferred into glass vials. […] Quality control (QC) samples were prepared for concentrations 10, 100 and 1000 ng/ml in plasma or brain homogenates.
Elution was with gradient of 0.5% formic acid/acetonitrile (99:1) increased step-wise to (5:95).
The pharmacokinetic parameters for study compounds in plasma and brain were calculated using standard non-compartmental methods. The elimination phase half-life (t½) was calculated by least-squares regression analysis of the terminal linear part of the log concentration-time curve. […] The maximum concentration (Cmax) and the time to Cmax (Tmax) were derived directly from the concentration data. Mean Residence Time, MRT, and elimination rate constant, Ke, were also calculated from the concentration vs. time data of plasma samples.

[3] = pH 6.8 buffer, powder added, 25±3° C., 12-hour monitoring

CNC1=NN=C(C)C(C)=NN=C(NC)[S][Cu][S]1 [CuATSM, Copper(II) diacetyl-di(N4-methyl)thiosemicarbazone, reference compound]
concentration of CuATSM at the end of the 12-hour monitoring period ([1]; pH 6.8): remained at that concentration
time to maximum concentration of CuATSM ([1]; pH 6.8): approximately 8 hours
Brain AUC0-24h [2]: 10944 ng·min/g
Brain AUC0-inf [2]: 13843 ng·min/g
Brain Cmax [2]: 28.4 ng/g
Brain Tmax [2]: 1 h
Brain t½ (number of time points) [2]: 199 (3) min
Plasma Ke [2]: 0.0035 min⁻¹
Plasma MRT [2]: 5.25 h
Plasma AUC0-24h [2]: 9637 ng·min/mL
Plasma AUC0-inf [2]: 9698 ng·min/mL
Plasma Cmax [2]: 22.2 ng/mL
Plasma Tmax [2]: 2 h
Plasma t½ (number of time points) [2]: 196 (4) min
Brain:plasma-ratio (AUC-based) [2]: 1.1
Brain:plasma-ratio (Cmax-based) [2]: 1.3

CNC1=NN=C(C)C(C)=NN=C(NC)[S][Cu][S]1.O=C(O)C(O)C(O)C(O)C(O)CO.O=C(O)C(O)C(O)C(O)C(O)CO [CuATSM:gluconic acid (1:2)]
solubility in DMSO (did not fully dissolve at) ([1]; DMSO stock solution): < 400 µg/mL
time to maximum concentration of CuATSM ([1]; pH 1.2 KCl/HCl buffer): ≤ 0.3 h
maximum concentration of CuATSM in solution ([1]; pH 1.2 KCl/HCl buffer, 3-hour monitoring): approximately 195 μg/mL
dissolved CuATSM as share of the total amount of CuATSM in the sample ([1]; pH 1.2 buffer, within 0.3 hours, kept for 3 hours): 33%
time to maximum concentration of CuATSM ([1]; pH 6.8 buffer, 25±3° C.): ≤ 0.11 h
change in the chemical identity of CuATSM after dissolution (UV spectral shifts) ([1]; pH 6.8 buffer, 450 nm shifted to 415 nm within the first 0.3 hours): reaction or decomposition
maximum concentration of CuATSM in solution [1, 3]: approximately 3 μg/mL
dissolved CuATSM as share of the total available in the assay ([1]; pH 6.8 buffer): less than 1%
Brain AUC0-24h [2]: 71554 ng·min/g
Brain AUC0-inf [2]: 73544 ng·min/g
Brain Cmax [2]: 133 ng/g
Brain Tmax [2]: 4 h
Brain t½ (number of time points) [2]: 261 (3) min
Plasma Ke [2]: 0.0028 min⁻¹
Plasma MRT [2]: 5.95 h
Plasma AUC0-24h [2]: 25 163 min*ng/mL
Plasma AUC0-inf [2]: 25696 ng·min/mL
Plasma Cmax [2]: 36.5 ng/mL
Plasma Tmax [2]: 4 h
Plasma t½ (number of time points) [2]: 252 (3) min
Brain:plasma-ratio (AUC-based) [2]: 2.8
Brain:plasma-ratio (Cmax-based) [2]: 3.6

CNC1=NN=C(C)C(C)=NN=C(NC)[S][Cu][S]1.O=C1NS(=O)(=O)c2ccccc21.O=C1NS(=O)(=O)c2ccccc21 [CuATSM:saccharin (1:2)]
time to maximum concentration of saccharin ([1]; pH 6.8 buffer): ≤ 0.3 h
concentration of CuATSM at the end of the 12-hour monitoring period ([1]; pH 6.8 buffer, 25±3° C.): approximately 1 μg/mL
time to maximum concentration of CuATSM ([1]; pH 6.8 buffer, 25±3° C.): ≤ 0.8 h
maximum concentration of CuATSM in solution [1, 3]: approximately 2 μg/mL
maximum concentration of saccharin in solution ([1]; pH 6.8 buffer, unchanged over the 12-hour monitoring period): approximately 60 μg/mL
dissolved CuATSM as share of the total available in the assay ([1]; pH 6.8 buffer): less than 1%
Brain AUC0-24h [2]: 30643 ng·min/g
Brain AUC0-inf [2]: 30979 ng·min/g
Brain Cmax [2]: 71.8 ng/g
Brain Tmax [2]: 0.25 h
Brain t½ (number of time points) [2]: 202 (2) min
Plasma Ke [2]: 0.0040 min⁻¹
Plasma MRT [2]: 6.25 h
Plasma AUC0-24h [2]: 20 333 min*ng/mL
Plasma AUC0-inf [2]: 20436 ng·min/mL
Plasma Cmax [2]: 29.0 ng/mL
Plasma Tmax [2]: 2 h
Plasma t½ (number of time points) [2]: 170 (2) min
Brain:plasma-ratio (AUC-based) [2]: 1.5
Brain:plasma-ratio (Cmax-based) [2]: 2.5
